Results on three compounds are retold here after ChEMBL document CHEMBL5653631, “A Potent and Selective ULK1 Inhibitor Suppresses Autophagy and Sensitizes Cancer Cells to Nutrient Stress” (iScience, 2018).

For orientation: inhibition means the relative decrease from the control value, in per cent.

Experiment [1] concerns the target Ephrin type-A receptor 4 (Homo sapiens) (UniProt P54764). Briefly: Inhibition of human recombinant EphA4 at 40 nM in presence of ATP by radiometric assay relative to control.
For experiment [2], the target named is Serine/threonine-protein kinase PLK3 (Homo sapiens) (UniProt Q9H4B4). Briefly: Inhibition of human recombinant PLK3 at 40 nM in presence of ATP by radiometric assay relative to control.
Sequence of Serine/threonine-protein kinase PLK3 (Homo sapiens) (Q9H4B4 whole entry, looked up): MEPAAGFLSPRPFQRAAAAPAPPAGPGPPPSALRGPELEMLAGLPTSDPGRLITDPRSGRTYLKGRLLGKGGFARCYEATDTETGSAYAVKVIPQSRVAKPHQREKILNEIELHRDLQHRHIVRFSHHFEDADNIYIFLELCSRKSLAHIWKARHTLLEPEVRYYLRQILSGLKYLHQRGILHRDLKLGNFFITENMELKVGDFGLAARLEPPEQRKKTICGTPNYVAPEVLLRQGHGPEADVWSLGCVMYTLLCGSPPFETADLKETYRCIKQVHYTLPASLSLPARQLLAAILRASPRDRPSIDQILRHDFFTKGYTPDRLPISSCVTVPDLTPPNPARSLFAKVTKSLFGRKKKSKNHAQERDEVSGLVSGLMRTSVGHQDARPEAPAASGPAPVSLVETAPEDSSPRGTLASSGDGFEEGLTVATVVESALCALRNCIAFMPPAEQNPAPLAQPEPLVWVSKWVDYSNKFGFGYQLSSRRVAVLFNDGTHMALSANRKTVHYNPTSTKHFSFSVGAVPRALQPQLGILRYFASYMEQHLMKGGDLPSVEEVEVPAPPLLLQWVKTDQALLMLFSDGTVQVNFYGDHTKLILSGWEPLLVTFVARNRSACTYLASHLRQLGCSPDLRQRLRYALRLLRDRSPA
Experiment [3] concerns the target SRSF protein kinase 1 (Homo sapiens) (UniProt Q96SB4). Briefly: Inhibition of human recombinant SRPK1 at 40 nM related to control ULK1.
Experiment [4] deals with Tau-tubulin kinase 2 (Homo sapiens) (UniProt Q6IQ55). The experiment is described as follows: Inhibition of human recombinant TTBK2 at 40 nM related to control ULK1.
Sequence of Tau-tubulin kinase 2 (Homo sapiens) (Q6IQ55 whole entry): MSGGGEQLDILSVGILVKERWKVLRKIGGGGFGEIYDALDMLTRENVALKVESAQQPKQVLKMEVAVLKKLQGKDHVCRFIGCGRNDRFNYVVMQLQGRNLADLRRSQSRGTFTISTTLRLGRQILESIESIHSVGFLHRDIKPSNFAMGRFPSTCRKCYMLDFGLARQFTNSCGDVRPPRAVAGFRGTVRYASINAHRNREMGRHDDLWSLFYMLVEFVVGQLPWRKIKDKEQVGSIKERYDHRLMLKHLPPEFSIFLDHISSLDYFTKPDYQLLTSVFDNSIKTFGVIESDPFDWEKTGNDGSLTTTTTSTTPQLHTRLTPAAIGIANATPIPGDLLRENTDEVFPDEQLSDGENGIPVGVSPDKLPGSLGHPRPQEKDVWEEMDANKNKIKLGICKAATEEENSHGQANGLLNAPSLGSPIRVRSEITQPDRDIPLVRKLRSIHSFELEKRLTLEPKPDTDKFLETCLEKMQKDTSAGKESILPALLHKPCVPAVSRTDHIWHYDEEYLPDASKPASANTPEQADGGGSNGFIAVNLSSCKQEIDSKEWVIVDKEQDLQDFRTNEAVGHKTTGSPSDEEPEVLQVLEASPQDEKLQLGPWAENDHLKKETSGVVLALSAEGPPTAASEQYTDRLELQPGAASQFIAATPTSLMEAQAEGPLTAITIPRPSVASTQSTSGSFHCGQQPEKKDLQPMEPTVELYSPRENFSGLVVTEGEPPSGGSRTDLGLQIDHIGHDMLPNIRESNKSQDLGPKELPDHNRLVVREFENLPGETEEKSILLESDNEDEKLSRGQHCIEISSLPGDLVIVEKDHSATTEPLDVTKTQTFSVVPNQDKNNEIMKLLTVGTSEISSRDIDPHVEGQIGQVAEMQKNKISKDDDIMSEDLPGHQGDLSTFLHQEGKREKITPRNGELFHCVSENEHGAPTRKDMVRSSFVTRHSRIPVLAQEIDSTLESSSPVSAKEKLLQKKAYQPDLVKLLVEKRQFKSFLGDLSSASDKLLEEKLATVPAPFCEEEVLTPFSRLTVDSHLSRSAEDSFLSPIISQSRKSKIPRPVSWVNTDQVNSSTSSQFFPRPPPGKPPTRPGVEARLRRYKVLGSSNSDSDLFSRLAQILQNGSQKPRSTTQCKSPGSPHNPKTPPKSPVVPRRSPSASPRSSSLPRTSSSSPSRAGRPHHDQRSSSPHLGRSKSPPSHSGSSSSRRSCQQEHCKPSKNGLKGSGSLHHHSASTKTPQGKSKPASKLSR
Experiment [5] deals with Dual specificity protein kinase CLK3 (Homo sapiens) (UniProt P49761). The experiment is described as follows: Inhibition of human recombinant CLK3 at 500 nM related to control ULK1.
Sequence of Dual specificity protein kinase CLK3 (Homo sapiens) (P49761 whole entry, looked up): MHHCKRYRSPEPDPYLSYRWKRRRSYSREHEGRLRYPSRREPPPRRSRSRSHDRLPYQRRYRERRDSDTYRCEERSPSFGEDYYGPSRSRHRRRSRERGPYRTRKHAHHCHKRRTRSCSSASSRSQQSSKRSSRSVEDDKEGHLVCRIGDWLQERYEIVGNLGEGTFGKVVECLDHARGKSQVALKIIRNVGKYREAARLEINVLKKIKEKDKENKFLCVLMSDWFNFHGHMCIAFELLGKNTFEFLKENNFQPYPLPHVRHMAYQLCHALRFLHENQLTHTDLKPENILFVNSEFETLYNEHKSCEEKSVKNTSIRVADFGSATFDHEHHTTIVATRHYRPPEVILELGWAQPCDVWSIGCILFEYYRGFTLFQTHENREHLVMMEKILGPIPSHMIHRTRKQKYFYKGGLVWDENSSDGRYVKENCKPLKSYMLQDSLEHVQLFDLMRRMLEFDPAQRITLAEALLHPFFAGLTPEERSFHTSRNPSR
Another experiment is filed under the species Homo sapiens. Briefly: Inhibition of human recombinant KHS1 at 500 nM related to control ULK1.
Experiment [6] has as its target LIM domain kinase 1 (Homo sapiens) (UniProt P53667). Briefly: Inhibition of human recombinant LIMK1 at 500 nM related to control ULK1.
The target in experiment [7] is T1, Calcium/calmodulin-dependent protein kinase type IV (Homo sapiens) (UniProt Q16566).
T1 sequence (whole entry): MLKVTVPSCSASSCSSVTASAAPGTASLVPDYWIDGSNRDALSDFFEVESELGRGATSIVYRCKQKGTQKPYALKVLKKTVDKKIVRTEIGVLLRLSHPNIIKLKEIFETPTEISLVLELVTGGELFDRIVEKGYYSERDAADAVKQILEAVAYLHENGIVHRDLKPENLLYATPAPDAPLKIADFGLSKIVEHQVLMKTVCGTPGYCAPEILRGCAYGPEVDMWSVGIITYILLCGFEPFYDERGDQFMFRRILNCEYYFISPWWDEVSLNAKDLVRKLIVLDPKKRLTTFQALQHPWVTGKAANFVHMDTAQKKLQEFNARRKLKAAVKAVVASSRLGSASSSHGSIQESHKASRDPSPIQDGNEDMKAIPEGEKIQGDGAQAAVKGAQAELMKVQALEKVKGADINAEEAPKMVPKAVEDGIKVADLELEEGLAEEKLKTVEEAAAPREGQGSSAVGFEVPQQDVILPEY
The experiment is described as follows: Inhibition of human recombinant CaMK4 at 15 nM in presence of ATP by radiometric assay relative to control.

The target in experiment [8] is T2, Dual specificity protein kinase TTK (Homo sapiens) (UniProt P33981).
T2 sequence (whole entry): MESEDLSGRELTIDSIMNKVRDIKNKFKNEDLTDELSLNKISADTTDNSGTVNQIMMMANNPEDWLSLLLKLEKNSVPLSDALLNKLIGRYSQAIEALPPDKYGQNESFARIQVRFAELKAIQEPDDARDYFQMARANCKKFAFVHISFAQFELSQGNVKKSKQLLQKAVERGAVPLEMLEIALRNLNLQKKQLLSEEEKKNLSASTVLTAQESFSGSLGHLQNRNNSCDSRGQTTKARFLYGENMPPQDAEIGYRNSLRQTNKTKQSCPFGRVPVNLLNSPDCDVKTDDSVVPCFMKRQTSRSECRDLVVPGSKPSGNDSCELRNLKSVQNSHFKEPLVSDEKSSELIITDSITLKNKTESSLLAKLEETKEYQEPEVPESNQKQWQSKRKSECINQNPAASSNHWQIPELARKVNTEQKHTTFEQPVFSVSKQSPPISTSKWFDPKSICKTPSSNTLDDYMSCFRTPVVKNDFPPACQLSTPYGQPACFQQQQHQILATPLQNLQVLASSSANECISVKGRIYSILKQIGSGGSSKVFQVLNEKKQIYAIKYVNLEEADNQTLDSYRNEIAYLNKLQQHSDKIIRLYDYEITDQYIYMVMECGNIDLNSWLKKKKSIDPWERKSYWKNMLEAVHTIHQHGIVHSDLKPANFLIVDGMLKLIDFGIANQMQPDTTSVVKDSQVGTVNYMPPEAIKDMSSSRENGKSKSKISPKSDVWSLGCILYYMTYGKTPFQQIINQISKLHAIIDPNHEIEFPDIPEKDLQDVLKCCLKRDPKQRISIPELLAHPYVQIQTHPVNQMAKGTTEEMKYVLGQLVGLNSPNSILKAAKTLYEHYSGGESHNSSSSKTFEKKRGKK
Briefly: Inhibition of human recombinant TTK at 15 nM in presence of ATP by radiometric assay relative to control.

The target of experiment [9] is Calcium/calmodulin-dependent protein kinase kinase 1 (Homo sapiens) (UniProt Q8N5S9). The experiment is described as follows: Inhibition of human recombinant CaMKK1 at 15 nM related to control ULK1.
In experiment [10] the target is Interferon-induced, double-stranded RNA-activated protein kinase (Homo sapiens) (UniProt P19525). The experiment is described as follows: Inhibition of human recombinant PKR at 15 nM related to control ULK1.
Experiment [11] has as its target T3, Serine/threonine-protein kinase PLK4 (Homo sapiens) (UniProt O00444).
T3 sequence (whole entry): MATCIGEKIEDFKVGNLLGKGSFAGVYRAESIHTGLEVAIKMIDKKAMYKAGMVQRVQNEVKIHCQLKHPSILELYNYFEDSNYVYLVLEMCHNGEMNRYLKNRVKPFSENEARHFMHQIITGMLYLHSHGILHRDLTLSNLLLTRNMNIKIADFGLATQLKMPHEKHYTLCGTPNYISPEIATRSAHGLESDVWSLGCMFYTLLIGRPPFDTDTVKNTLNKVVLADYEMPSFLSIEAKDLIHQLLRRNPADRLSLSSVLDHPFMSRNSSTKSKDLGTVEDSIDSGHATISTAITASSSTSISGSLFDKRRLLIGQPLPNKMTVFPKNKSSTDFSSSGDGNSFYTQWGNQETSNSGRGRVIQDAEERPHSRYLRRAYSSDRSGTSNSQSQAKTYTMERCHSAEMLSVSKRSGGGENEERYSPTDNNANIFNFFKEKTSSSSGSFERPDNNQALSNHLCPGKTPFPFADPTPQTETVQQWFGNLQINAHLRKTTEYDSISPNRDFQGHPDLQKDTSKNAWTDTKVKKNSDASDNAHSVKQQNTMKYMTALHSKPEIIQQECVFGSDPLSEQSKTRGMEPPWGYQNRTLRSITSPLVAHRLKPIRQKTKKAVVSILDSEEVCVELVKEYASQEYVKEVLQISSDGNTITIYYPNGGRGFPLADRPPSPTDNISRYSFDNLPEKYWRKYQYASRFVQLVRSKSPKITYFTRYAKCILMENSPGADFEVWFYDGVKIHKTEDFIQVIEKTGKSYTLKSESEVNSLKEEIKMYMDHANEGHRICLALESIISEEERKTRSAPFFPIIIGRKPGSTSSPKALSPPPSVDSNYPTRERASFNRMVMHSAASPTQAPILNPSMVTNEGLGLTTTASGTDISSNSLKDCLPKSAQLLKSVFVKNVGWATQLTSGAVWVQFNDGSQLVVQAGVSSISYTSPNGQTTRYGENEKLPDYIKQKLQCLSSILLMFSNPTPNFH
Briefly: Inhibition of human recombinant PLK4 at 15 nM related to control ULK1.

Sequence of SRSF protein kinase 1 (Homo sapiens) (Q96SB4 whole entry): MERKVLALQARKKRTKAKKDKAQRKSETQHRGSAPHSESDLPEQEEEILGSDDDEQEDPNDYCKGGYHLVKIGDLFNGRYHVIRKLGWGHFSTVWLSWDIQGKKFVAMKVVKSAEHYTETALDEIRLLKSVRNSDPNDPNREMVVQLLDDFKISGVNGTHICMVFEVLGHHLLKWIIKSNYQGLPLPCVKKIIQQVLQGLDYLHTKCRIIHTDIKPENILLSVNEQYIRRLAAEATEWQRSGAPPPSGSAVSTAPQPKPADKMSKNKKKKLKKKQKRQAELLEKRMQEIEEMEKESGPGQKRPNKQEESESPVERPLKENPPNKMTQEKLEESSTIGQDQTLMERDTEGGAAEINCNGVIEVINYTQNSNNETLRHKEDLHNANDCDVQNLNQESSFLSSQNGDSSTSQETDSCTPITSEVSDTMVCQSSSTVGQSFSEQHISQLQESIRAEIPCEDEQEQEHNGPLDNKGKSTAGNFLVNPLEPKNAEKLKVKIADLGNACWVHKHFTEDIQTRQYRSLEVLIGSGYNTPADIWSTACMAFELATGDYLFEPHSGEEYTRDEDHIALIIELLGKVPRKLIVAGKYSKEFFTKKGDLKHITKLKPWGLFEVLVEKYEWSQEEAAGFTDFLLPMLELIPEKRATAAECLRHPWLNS
Sequence of LIM domain kinase 1 (Homo sapiens) (P53667 whole entry, looked up, the tested form may be a part): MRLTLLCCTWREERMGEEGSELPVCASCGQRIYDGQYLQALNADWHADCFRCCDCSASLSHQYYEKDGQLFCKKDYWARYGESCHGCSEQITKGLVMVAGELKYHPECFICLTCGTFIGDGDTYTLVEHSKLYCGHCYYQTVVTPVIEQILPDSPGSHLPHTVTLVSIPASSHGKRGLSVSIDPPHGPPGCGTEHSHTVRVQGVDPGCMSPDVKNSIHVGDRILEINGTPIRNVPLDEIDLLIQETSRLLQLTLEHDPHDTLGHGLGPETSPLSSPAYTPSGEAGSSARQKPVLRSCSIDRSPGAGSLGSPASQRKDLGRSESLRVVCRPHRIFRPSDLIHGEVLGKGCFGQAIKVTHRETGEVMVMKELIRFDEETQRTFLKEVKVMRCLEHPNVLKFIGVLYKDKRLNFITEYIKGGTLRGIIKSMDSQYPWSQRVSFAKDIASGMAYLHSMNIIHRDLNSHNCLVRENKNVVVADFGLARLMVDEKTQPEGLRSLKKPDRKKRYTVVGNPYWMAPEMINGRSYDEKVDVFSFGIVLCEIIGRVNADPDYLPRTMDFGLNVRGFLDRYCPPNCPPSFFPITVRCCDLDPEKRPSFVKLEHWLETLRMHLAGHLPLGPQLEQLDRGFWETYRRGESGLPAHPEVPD
Sequence of Ephrin type-A receptor 4 (Homo sapiens) (P54764 whole entry): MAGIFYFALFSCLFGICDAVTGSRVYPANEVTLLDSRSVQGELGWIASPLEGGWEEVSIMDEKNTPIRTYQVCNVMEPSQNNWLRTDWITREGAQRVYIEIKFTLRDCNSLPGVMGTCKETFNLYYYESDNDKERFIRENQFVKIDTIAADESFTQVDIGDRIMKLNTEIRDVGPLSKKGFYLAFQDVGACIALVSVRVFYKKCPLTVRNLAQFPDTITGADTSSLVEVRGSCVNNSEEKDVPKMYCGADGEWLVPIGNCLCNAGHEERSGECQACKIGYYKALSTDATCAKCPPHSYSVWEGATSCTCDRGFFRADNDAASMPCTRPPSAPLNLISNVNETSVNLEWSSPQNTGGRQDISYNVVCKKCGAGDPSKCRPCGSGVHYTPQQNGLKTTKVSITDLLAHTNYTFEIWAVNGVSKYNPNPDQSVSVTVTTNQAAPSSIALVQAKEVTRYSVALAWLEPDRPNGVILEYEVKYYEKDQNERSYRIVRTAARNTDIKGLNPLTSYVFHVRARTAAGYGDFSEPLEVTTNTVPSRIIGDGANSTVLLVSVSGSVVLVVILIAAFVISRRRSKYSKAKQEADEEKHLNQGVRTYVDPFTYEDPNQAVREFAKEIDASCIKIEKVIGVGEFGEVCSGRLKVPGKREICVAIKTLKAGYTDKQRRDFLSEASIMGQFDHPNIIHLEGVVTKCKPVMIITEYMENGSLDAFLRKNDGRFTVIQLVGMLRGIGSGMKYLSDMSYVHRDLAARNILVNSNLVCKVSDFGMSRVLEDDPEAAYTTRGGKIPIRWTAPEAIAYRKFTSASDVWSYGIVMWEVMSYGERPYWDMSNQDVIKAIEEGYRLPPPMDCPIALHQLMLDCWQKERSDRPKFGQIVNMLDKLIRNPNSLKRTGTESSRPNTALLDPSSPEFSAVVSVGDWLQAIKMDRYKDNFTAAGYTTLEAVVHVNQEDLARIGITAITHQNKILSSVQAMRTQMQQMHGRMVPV

As to `O=C(N[C@@H](C1CC1)C(F)(F)F)c1cc(-c2cnn3cc(-c4ccc(F)cc4)cnc23)cs1`, the inhibition in experiment [1] and in experiment [2] was 0% throughout. The fold change (FC) in experiment [3] stood at 0.14; in [4], 0.

For `CNC(=O)c1ccccc1Oc1nc(Nc2cc(OC)c(OC)c(OC)c2)ncc1Br`, the fold change (FC) turned out to be 0 in experiment [5], 0.15 in the experiment filed under Homo sapiens and 0.03 in experiment [6].

Regarding `CC(C)[C@H](NC(=O)c1cc(-c2cnn3cc(-c4ccc(OCCN5CCCCC5)cc4)cnc23)cs1)C(F)(F)F`, the inhibition came to 0% in experiment [7] and 22% in [8]. The fold change (FC) came out at 0 in experiment [9], 0.02 in experiment [10] and 0.35 in experiment [11].
